Test results taken from patent publication US20100317528A1, “HERBICIDE CONTAINING BENZOYLPYRAZOLE COMPOUND” (ISHIHARA SANGYO KAISHA, LTD., priority 2006, published 2010).

How the values were obtained:
Assay type in all cases: in vivo
wheat (Triticum spp.) [1] = experiment: Test Example 1: foliar treatment, upland pot test, wheat; details: 31 g/ha active ingredient, observed 17th to 25th day after application
Text: (§1) Upland field soil was put into a 1/170,000 hectare pot, and seeds of various plants were sown. When the respective plants reached predetermined leaf stage ((1) barnyardgrass (Echinochloa crus-galli L.): 1.0 to 3.0 leaf stage, (2) crabgrass (Digitaria sanguinalis L.): 1.0 to 3.0 leaf stage, (3) green foxtail (Setaria viridis L.): 1.0 to 3.0 leaf stage, (4) redroot pigweed (Amaranthus retroflexus L.): cotyledon stage to 2.0 leaf stage, (5) prickly sida (Sida spinosa L.): cotyledon stage to 1.0 leaf stage, (6) velvetleaf (Abutilon theophrasti MEDIC.): 0.1 to 1.5 leaf stage, (7) rice (Oryza sativa L.): 1.0 to 3.0 leaf stage, (8) wheat (Triticum spp.): 1.7 to 3.4 leaf stage, (9) corn (Zea mays L.): 2.0 to 3.5 leaf stage, (10) soybean (Glycine max Merr.): primary leaf stage to 0.4 leaf stage), wettable powders or emulsifiable concentrates of the compounds of the above formula (I) prepared in accordance with a conventional preparation method, were weighed so that the active ingredients became the prescribed amounts, and diluted with water in an amount corresponding to 500 liter per 1 hectare (containing 0.1 vol % of “KUSARINOH”, manufactured by NIHON NOHYAKU CO., LTD. as an agricultural spreader). The spray solutions thus prepared were applied for foliar treatment by a small sprayer.
(§2) On the 17th to 25th day after application, the state of growth of the respective plants was visually observed, and the herbicidal effect was evaluated by a growth inhibition rate (%) of 0 (equivalent to the non-treated area) to 100% (complete kill).

corn (Zea mays L.) [2] = experiment: Test Example 1: foliar treatment, upland pot test, corn; details: 31 g/ha active ingredient, observed 17th to 25th day after application
Text: as §1, §2

rice (Oryza sativa L.) [3] = experiment: Test Example 2: soil application on the day after sowing, rice; details: 250 g/ha active ingredient, observed 19th to 28th day after application
Text: (§3) Upland field soil was put into a 1/170,000 hectare pot, and seeds of various plants barnyardgrass (Echinochloa crus-galli L.), crabgrass (Digitaria sanquinalis L.), green foxtail (Setaria viridis L.), redroot pigweed (Amaranthus retroflexus L.), prickly sida (Sida spinosa L.), velvetleaf (Abutilon theophrasti MEDIC.), rice (Oryza sativa L.), wheat (Triticum spp.), corn (Zea mays L.) and soybean (Glycine max Merr.)) were sown. On the day after sowing, wettable powders or emulsifiable concentrates of the compounds of the above formula (I) prepared in accordance with a conventional preparation method, were weighed so that the active ingredients became the prescribed amounts, and diluted with water in an amount corresponding to 500 liter per 1 hectare, followed by soil application with a small sprayer.
(§4) On the 19th to 28th day after the application, the state of growth of the respective plants was visually observed, and the herbicidal effect was evaluated by a growth inhibition rate (%) of from 0 (equivalent to the non-treated area) to 100% (complete kill).

[4] = test system: green foxtail (Setaria viridis L.); experiment: Test Example 1: foliar treatment, upland pot test, green foxtail; details: 31 g/ha active ingredient, observed 17th to 25th day after application
Text: as §1, §2

rice (Oryza sativa L.) [5] = experiment: Test Example 1: foliar treatment, upland pot test, rice; details: 31 g/ha active ingredient, observed 17th to 25th day after application
Text: as §1, §2

[6] = test system: soybean (Glycine max Merr.); experiment: Test Example 1: foliar treatment, upland pot test, soybean; details: 31 g/ha active ingredient, observed 17th to 25th day after application
Text: as §1, §2

[7] = test system: prickly sida (Sida spinosa L.); experiment: Test Example 1: foliar treatment, upland pot test, prickly sida; details: 31 g/ha active ingredient, observed 17th to 25th day after application
Text: as §1, §2

[8] = test system: velvetleaf (Abutilon theophrasti MEDIC.); experiment: Test Example 1: foliar treatment, upland pot test, velvetleaf; details: 31 g/ha active ingredient, observed 17th to 25th day after application
Text: as §1, §2

[9] = test system: barnyardgrass (Echinochloa crus-galli L.); experiment: Test Example 2: soil application on the day after sowing, barnyardgrass; details: 250 g/ha active ingredient, observed 19th to 28th day after application
Text: as §3, §4

[10] = test system: crabgrass (Digitaria sanquinalis L.); experiment: Test Example 2: soil application on the day after sowing, crabgrass; details: 250 g/ha active ingredient, observed 19th to 28th day after application
Text: as §3, §4

[11] = test system: crabgrass (Digitaria sanguinalis L.); experiment: Test Example 1: foliar treatment, upland pot test, crabgrass; details: 31 g/ha active ingredient, observed 17th to 25th day after application
Text: as §1, §2

[12] = test system: redroot pigweed (Amaranthus retroflexus L.); experiment: Test Example 1: foliar treatment, upland pot test, redroot pigweed; details: 31 g/ha active ingredient, observed 17th to 25th day after application
Text: as §1, §2

[13] = test system: green foxtail (Setaria viridis L.); experiment: Test Example 2: soil application on the day after sowing, green foxtail; details: 250 g/ha active ingredient, observed 19th to 28th day after application
Text: as §3, §4

[14] = test system: soybean (Glycine max Merr.); experiment: Test Example 2: soil application on the day after sowing, soybean; details: 250 g/ha active ingredient, observed 19th to 28th day after application
Text: as §3, §4

[15] = test system: velvetleaf (Abutilon theophrasti MEDIC.); experiment: Test Example 2: soil application on the day after sowing, velvetleaf; details: 250 g/ha active ingredient, observed 19th to 28th day after application
Text: as §3, §4

corn (Zea mays L.) [16] = experiment: Test Example 2: soil application on the day after sowing, corn; details: 250 g/ha active ingredient, observed 19th to 28th day after application
Text: as §3, §4

[17] = test system: barnyardgrass (Echinochloa crus-galli L.); experiment: Test Example 1: foliar treatment, upland pot test, barnyardgrass; details: 31 g/ha active ingredient, observed 17th to 25th day after application
Text: as §1, §2

[18] = test system: prickly sida (Sida spinosa L.); experiment: Test Example 2: soil application on the day after sowing, prickly sida; details: 250 g/ha active ingredient, observed 19th to 28th day after application
Text: as §3, §4

[19] = test system: redroot pigweed (Amaranthus retroflexus L.); experiment: Test Example 2: soil application on the day after sowing, redroot pigweed; details: 250 g/ha active ingredient, observed 19th to 28th day after application
Text: as §3, §4

wheat (Triticum spp.) [20] = experiment: Test Example 2: soil application on the day after sowing, wheat; details: 250 g/ha active ingredient, observed 19th to 28th day after application
Text: as §3, §4

| Compound | Growth inhibition rate (%) Wheat (wheat (Triticum spp.) [1]) [%] | Growth inhibition rate (%) Corn (corn (Zea mays L.) [2]) [%] | Growth inhibition rate (%) Rice (rice (Oryza sativa L.) [3]) [%] | Growth inhibition rate (%) Green foxtail [4] [%] | Growth inhibition rate (%) Rice (rice (Oryza sativa L.) [5]) [%] | Growth inhibition rate (%) Soybean [6] [%] | Growth inhibition rate (%) Prickly sida [7] [%] | Growth inhibition rate (%) Velvetleaf [8] [%] | Growth inhibition rate (%) Barnyardgrass [9] [%] | Growth inhibition rate (%) Crabgrass [10] [%] | Growth inhibition rate (%) Crabgrass [11] [%] | Growth inhibition rate (%) Redroot pigweed [12] [%] | Growth inhibition rate (%) Green foxtail [13] [%] | Growth inhibition rate (%) Soybean [14] [%] | Growth inhibition rate (%) Velvetleaf [15] [%] | Growth inhibition rate (%) Corn (corn (Zea mays L.) [16]) [%] | Growth inhibition rate (%) Barnyardgrass [17] [%] | Growth inhibition rate (%) Prickly sida [18] [%] | Growth inhibition rate (%) Redroot pigweed [19] [%] | Growth inhibition rate (%) Wheat (wheat (Triticum spp.) [20]) [%] |
| --- | --- | --- | --- | --- | --- | --- | --- | --- | --- | --- | --- | --- | --- | --- | --- | --- | --- | --- | --- | --- |
| COCC(C)Oc1c(S(C)(=O)=O)ccc(C(=O)c2cnn(C)c2O)c1C (centres unmarked) [compound 254] | 0 | 0 | 75 | 50 | 40 | 80 | 40 | 80 | 100 | 98 | 50 | 95 | 10 | 0 | 50 | 0 | 40 | 60 | 100 |  |
| COCCOc1c(S(C)(=O)=O)ccc(C(=O)c2c(C)nn(C(C)C)c2O)c1C [compound 260] | 0 | 0 | 100 | 70 | 70 | 40 | 30 | 70 | 100 | 100 | 80 | 90 | 100 |  | 70 | 60 | 95 | 60 | 100 | 20 |
